Counter-ions that a name gives are not always drawn.
Target: T1, human β3 (Homo sapiens, UniProt P13945)
T1 construct: the full length human β3 gene was obtained from a human genomic library; expressed in transfected cells; host or cells: CHO (Chinese hamster ovary) cells, pcDNA3 vector
Assay: Human β3-agonist activities (cAMP in CHO cells transfected with human β3 gene)
Type: cell-based
Details: CHO cells expressing human β3; for EC50: cAMP quantitated with EIA kit after 30 minutes, read-out: human β3-agonist activity (ED50); for Emax: read-out: intrinsic activity as compared with Isoproterenol
Description: Human β3-Agonist Activities
Human β3-agonist activities were determined using CHO (Chinese hamster ovary) cells transfected with pcDNA3 (mfd. by Invitrogen) to which human β3 gene had been inserted. Human β3 fragment was first obtained from human adipose tissue cDNA (mfd. by Clonetech) by PCR using the primer of β3 (Krief, et al., J. Clin. Invest., 91, p. 344 (1993)). The human β3 fragment obtained was then used as a probe and then the full length human β3 gene was obtained from a human genomic library (mfd. by Clonetech).
The above cells were cultured in a Ham F-12 medium supplemented with 10% fetal bovine serum (mfd. by Dainippon Pharmaceutical), 400 μg/mL geneticin (Gibco BRL), 100 U/mL penicillin and 100 μg/mL streptomycin. After placing these cells (5×10^5) into a 6-well plate and culturing them for 24 hours, they were allowed to stand on a serum-free Ham F-12 medium for 2 hours. The compound was first dissolved in DMSO, repeatedly diluted by ten times with Ham F-12 supplemented with 1 mM isobutylmethylxanthine and 1 mM ascorbic acid to a final concentration of from 10^−5 to 10^−12 M, and then added to the cells.
After the cells were cultured for 30 minutes, the medium was removed followed by addition of 0.5 mL of an aqueous 1 N sodium hydroxide solution. The medium was allowed to stand for 20 minutes and then 0.5 mL of an aqueous 1 N acetic acid solution was added to the medium. The medium was stirred and centrifuged followed by quantitating cAMP with cAMP EIA kit (mfd. by Cayman). Isoproterenol was purchased from RBI (Research Biochemicals International).

[1] = cAMP, relative to Isoproterenol

T1 sequence (P13945 whole entry): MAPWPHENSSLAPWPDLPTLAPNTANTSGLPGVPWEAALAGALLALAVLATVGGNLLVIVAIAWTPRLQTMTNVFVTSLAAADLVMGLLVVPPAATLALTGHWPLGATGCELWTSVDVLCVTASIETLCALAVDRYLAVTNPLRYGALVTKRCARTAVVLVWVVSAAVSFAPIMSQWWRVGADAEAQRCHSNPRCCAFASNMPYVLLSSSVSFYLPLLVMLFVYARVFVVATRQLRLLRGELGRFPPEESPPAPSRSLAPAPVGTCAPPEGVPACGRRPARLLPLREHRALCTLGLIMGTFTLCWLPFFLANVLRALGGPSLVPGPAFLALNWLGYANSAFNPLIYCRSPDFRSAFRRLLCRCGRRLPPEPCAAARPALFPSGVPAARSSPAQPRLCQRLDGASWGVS

Row | SMILES | EC50 | Emax [1] | intrinsic activity as compared with Isoproterenol [1]
1 | CCN(c1ccc2c(c1)[nH]c1cc(OCCNC[C@H](O)c3cccc(NS(C)(=O)=O)c3)ccc12)S(C)(=O)=O.Cl [Example 33, (R)-N-[3-[2-[2-[7-(N′-ethyl-N′-methylsulfonylamino)-9H-carbazol-2-yloxy]ethylamino]-1-hydroxyethyl]phenyl]methanesulfonamide Hydrochloride] | 0.22 nM |  | 94%
2 | CC(=O)Nc1ccc2c(c1)[nH]c1cc(OCCNC[C@H](O)c3cccc(NS(C)(=O)=O)c3)ccc12 [Example 8, (R)-N-[3-[2-[2-(7-acetamido-9H-carbazol-2-yloxy)-ethylamino]-1-hydroxyethyl]phenyl]methanesulfonamide Hydrochloride] | 0.35 nM | 47% | 
3 | CS(=O)(=O)Nc1cccc([C@@H](O)CNCCOc2ccc3c(c2)[nH]c2cc(O)ccc23)c1 [Example 2, (R)-N-[3-[2-[2-(7-hydroxy-9H-carbazol-2-yloxy)ethylamino]-1-hydroxyethyl]phenyl]methanesulfonamide Hydrochloride] | 0.8 nM | 82% | 
4 | CC(C)(C)C(=O)Oc1ccc2c(c1)[nH]c1cc(OCCNCC(O)c3cccc(NS(C)(=O)=O)c3)ccc12 (stereo not drawn) [Example 10] | 2.4 nM | 112% | 
5 | CS(=O)(=O)Nc1cc([C@@H](O)CNCCOc2ccc3c(c2)[nH]c2cc(O)ccc23)ccc1Cl [Example 3, (R)-N-[2-chloro-5-[2-[2-(7-hydroxy-9H-carbazol-2-yloxy)ethylamino]-1-hydroxyethyl]phenyl]methanesulfonamide Hydrochloride] | 1.5 nM | 75% | 
6 | CS(=O)(=O)Nc1cccc([C@@H](O)CNCCOc2ccc3c(c2)[nH]c2cc(N)ccc23)c1 [Example 9, (R)-N-[3-[2-[2-(7-amino-9H-carbazol-2-yloxy)ethylamino]-1-hydroxyethyl]phenyl]methanesulfonamide Dihydrochloride] | 1 nM | 102% | 

More lines, now with the values ahead:

Row | EC50 | Emax [1] | intrinsic activity as compared with Isoproterenol [1] | SMILES
7 | 0.69 nM | 114% |  | COCCOc1ccc2c(c1)[nH]c1cc(OCCNC[C@H](O)c3cccc(NS(C)(=O)=O)c3)ccc12 [Example 43, (R)-N-[3-[1-hydroxy-2-[2-[7-(2-methoxyethoxy)-9H-carbazol-2-yloxy]ethylamino]ethyl]phenyl]methanesulfonamide Hydrochloride]
8 | 0.16 nM | 96% |  | CS(=O)(=O)Nc1cccc([C@@H](O)CNCCOc2ccc3c(c2)[nH]c2cc(NS(C)(=O)=O)ccc23)c1 [Example 35, (R)-N-[3-[1-hydroxy-2-[2-(7-N′-methylsulfonylamino-9H-carbazol-2-yloxy)ethylamino]ethyl]phenyl]methanesulfonamide Hydrochloride]
9 | 2.6 nM | 114% |  | CS(=O)(=O)Nc1cccc([C@@H](O)CNCCOc2ccc3c(c2)[nH]c2cc(OCC(=O)O)ccc23)c1 [Example 45, (R)-N-[3-[2-[2-(7-hydroxycarbonylmethoxy-9H-carbazol-2-yloxy)ethylamino]-1-hydroxyethyl]phenyl]methanesulfonamide]

From patent US20030040538A1, “Novel substituted tricyclic compounds” (priority 1999, published 2003)
